What was measured:
[1] = target: ACC1 (Homo sapiens, UniProt Q13085); assay: In vitro ACC1 inhibition assay (ADP-Glo); type: biochemical; details: read-out: ACC1
Protocol: An exemplary procedure for the in vitro ACC inhibition assay, which can be used to determine the inhibitory action of compounds of the invention toward either ACC1 or ACC2, follows. The ADP-Glo™ Kinase Assay kit from Promega was used. The ADP-Glo™ Kinase Assay is a luminescent ADP detection assay to measure enzymatic activity by quantifying the amount of ADP produced during an enzyme reaction. The assay is performed in two steps; first, after the enzyme reaction, an equal volume of ADP-Glo™ Reagent is added to terminate the reaction and deplete the remaining ATP. Second, the Kinase Detection Reagent is added to simultaneously convert ADP to ATP and allow the newly synthesized ATP to be measured using a luciferase/luciferin reaction. Luminescence can be correlated to ADP concentrations by using an ATP-to-ADP conversion curve. The detailed procedure is as follows. 50 μL of the compound being tested (600 uM in DMSO) was added to a 384-well dilution plate. The compound was diluted 1:3 in succession in DMSO for each row for 11 wells. 0.5 μL ACC2 working solution was added to 384-well white Optiplate assay plate. 0.5 μL diluted compound solution in each column from step 2 to assay plate, each row containing 2 replicates. […] The plates were incubated at room temperature for 15 minutes. 5 μL substrate working solution was added to each well to initiate reaction. […] Plates were incubated at room temperature for 60 minutes. 10 μL ADP glo reagent was added. Plates were incubated at room temperature for 40 minutes. 20 μL kinase detection reagent was added.
Data for each concentration, as well as the positive and negative controls were averaged, and the standard deviation calculated. Percent inhibition was calculated by the formula: 100× (average negative control−compound)/(average negative control−average positive control). The IC50 for each compound was calculated by fitting the data with a non-linear regression equation: Y=Bottom+(Top-Bottom)/(1+10^((Log IC50−X)*HillSlope)), where X is the log of compound concentration and Y is percent inhibition.
The compound numbers correspond to the compound numbers in Table 1.

[2] = target: ACC2 (Homo sapiens, UniProt O00763); assay: In vitro ACC2 inhibition assay (ADP-Glo); type: biochemical; details: read-out: ACC2
ACC2, sequence (O00763 whole entry, species assumed): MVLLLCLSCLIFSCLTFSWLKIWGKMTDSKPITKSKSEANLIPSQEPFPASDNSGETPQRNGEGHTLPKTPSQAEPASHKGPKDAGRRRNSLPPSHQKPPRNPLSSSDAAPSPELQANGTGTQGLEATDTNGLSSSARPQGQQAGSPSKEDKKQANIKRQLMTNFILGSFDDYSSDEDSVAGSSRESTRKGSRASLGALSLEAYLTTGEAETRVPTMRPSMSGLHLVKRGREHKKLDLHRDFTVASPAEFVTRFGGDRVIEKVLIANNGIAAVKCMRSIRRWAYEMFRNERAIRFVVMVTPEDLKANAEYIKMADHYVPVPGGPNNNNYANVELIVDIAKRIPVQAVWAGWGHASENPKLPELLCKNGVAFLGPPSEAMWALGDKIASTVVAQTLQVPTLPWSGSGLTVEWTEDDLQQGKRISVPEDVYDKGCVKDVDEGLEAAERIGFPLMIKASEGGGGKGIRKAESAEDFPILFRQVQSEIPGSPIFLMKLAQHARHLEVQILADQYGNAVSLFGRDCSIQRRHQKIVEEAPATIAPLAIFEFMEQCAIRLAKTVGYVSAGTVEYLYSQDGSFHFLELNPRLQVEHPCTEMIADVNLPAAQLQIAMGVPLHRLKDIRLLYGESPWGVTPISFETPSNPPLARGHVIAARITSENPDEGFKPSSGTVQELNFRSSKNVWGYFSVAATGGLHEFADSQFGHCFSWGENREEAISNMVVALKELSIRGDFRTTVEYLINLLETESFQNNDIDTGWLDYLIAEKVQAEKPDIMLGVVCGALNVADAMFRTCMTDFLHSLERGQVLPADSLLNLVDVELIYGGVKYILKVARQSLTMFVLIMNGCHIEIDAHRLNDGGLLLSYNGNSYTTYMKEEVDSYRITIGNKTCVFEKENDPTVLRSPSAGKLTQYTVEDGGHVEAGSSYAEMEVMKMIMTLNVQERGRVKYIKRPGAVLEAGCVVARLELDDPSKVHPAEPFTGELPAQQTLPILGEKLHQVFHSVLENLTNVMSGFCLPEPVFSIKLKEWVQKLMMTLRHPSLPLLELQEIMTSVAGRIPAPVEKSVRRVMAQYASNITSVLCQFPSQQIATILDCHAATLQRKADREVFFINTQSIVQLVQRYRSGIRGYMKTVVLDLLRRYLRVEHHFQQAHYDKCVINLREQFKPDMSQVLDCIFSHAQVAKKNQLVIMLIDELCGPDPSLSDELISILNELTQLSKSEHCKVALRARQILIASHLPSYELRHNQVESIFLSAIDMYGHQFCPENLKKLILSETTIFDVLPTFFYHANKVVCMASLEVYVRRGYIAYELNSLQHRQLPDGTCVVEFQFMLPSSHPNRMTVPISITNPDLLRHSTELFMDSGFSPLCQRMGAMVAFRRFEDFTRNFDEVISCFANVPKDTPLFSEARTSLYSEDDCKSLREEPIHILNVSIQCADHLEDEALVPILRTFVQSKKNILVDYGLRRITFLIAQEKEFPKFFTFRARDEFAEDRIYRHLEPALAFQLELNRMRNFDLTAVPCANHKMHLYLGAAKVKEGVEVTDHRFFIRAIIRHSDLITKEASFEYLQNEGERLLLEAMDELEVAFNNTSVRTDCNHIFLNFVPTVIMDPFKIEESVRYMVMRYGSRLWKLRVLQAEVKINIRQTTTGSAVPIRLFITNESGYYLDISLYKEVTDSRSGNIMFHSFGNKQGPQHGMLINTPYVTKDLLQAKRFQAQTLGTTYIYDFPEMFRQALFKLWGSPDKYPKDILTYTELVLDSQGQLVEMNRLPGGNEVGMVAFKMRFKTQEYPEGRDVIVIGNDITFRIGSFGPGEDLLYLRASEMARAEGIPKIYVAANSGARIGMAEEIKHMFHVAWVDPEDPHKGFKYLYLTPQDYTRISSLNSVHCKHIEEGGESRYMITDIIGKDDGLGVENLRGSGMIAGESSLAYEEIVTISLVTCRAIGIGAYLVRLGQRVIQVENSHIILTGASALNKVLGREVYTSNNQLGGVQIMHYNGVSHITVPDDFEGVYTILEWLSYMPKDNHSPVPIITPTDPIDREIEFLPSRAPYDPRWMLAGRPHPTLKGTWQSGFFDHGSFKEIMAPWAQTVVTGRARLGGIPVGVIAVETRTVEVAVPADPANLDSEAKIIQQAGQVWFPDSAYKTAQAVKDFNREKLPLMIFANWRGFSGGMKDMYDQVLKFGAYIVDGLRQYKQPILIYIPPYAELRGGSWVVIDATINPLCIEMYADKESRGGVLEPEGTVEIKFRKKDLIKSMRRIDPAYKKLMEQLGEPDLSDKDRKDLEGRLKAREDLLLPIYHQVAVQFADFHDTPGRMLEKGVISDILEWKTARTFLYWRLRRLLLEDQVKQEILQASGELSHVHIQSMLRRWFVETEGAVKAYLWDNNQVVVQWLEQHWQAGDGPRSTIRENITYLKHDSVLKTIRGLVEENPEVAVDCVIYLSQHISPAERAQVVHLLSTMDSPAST
Procedure, shortened: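 Enzyme (human ACC1 or ACC2) and compound, serially diluted 1:3 over 11 points from a 600 uM DMSO stock, were preincubated 15 min before substrate addition.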

Row | Structure (SMILES) | IC50 [1] [nM] | IC50 [2] [nM]
1 | CCOC(=O)c1sc2c(c1C)c(=O)n(CC(=O)O)c(=O)n2CCc1ccccc1F [I-32, 2-[6-(ethoxycarbonyl)-1-[2-(2-fluorophenyl)ethyl]-5-methyl-2,4-dioxo-1H,2H,3H,4H-thieno[2,3-d]pyrimidin-3-yl]acetic acid] | < 5000 | < 5000
2 | CCOC(=O)c1sc2c(c1C)c(=O)n(CC(=O)O)c(=O)n2CCc1c(F)cccc1F [I-33, 2-[1-[2-(2,6-difluorophenyl)ethyl]-6-(ethoxycarbonyl)-5-methyl-2,4-dioxo-1H,2H,3H,4H-thieno[2,3-d]pyrimidin-3-yl]acetic acid] | 5000 to 20000 | 5000 to 20000
3 | CCOC(=O)c1sc2c(c1C)c(=O)n(Cc1nnn[nH]1)c(=O)n2CCc1ccccc1 [I-45, ethyl 5-methyl-2,4-dioxo-1-(2-phenylethyl)-3-(1H-1,2,3,4-tetrazol-5-ylmethyl)-1H,2H,3H,4H-thieno[2,3-d]pyrimidine-6-carboxylate] | < 5000 | < 5000
4 | CCOC(=O)c1sc2c(c1C)c(=O)n(CCC(=O)O)c(=O)n2CCc1ccccc1 [I-46, 3-[6-(ethoxycarbonyl)-5-methyl-2,4-dioxo-1-(2-phenylethyl)-1H,2H,3H,4H-thieno[2,3-d]pyrimidin-3-yl]propanoic acid] | < 5000 | < 5000
5 | CCOC(=O)c1sc2c(c1C)c(=O)n(CCS(C)(=O)=O)c(=O)n2CCc1ccccc1 [I-52] | > 50000 | > 50000
6 | CCOC(=O)c1sc2c(c1C)c(=O)n(CCC(N)=O)c(=O)n2CCc1ccccc1 [I-55, ethyl 3-(2-carbamoylethyl)-5-methyl-2,4-dioxo-1-(2-phenylethyl)-1H,2H,3H,4H-thieno[2,3-d]pyrimidine-6-carboxylate] | < 5000 | < 5000
7 | CCOC(=O)c1sc2c(c1C)c(=O)n(CC(=O)O)c(=O)n2CC(O)c1ccccc1 (centres unmarked) [I-60, 2-[6-(ethoxycarbonyl)-1-(2-hydroxy-2-phenylethyl)-5-methyl-2,4-dioxo-1H,2H,3H,4H-thieno[2,3-d]pyrimidin-3-yl]acetic acid] | < 5000 | < 5000
8 | CCOC(=O)c1sc2c(c1C)c(=O)n(CCc1nnn[nH]1)c(=O)n2CCc1ccccc1 [I-61] | < 5000 | < 5000
9 | CCOC(=O)c1sc2c(c1C)c(=O)n(C(C)(C)C(=O)O)c(=O)n2CCc1ccccc1 [I-70, 2-[6-(ethoxycarbonyl)-5-methyl-2,4-dioxo-1-(2-phenylethyl)-1H,2H,3H,4H-thieno[2,3-d]pyrimidin-3-yl]-2-methylpropanoic acid] | < 1000 | < 1000
10 | CCOC(=O)c1sc2c(c1C)c(=O)n(CC(=O)O)c(=O)n2CC(OC(C)C)c1ccccc1 (centres unmarked) [I-89, 2-[6-(ethoxycarbonyl)-5-methyl-2,4-dioxo-1-[2-phenyl-2-(propan-2-yloxy)ethyl]-1H,2H,3H,4H-thieno[2,3-d]pyrimidin-3-yl]acetic acid] | < 1000 | < 1000
11 | CCOC(=O)c1sc2c(c1C)c(=O)n(C(C)(C)C(=O)O)c(=O)n2CCc1ccccc1OC [I-93, 2-[6-(ethoxycarbonyl)-1-[2-(2-methoxyphenyl)ethyl]-5-methyl-2,4-dioxo-1H,2H,3H,4H-thieno[2,3-d]pyrimidin-3-yl]-2-methylpropanoic acid] | < 1000 | < 1000
12 | CCOC(=O)c1sc2c(c1C)c(=O)n(C(C)(C)C(=O)O)c(=O)n2CCc1ccccc1CC [I-100, 2-[6-(ethoxycarbonyl)-1-[2-(2-ethylphenyl)ethyl]-5-methyl-2,4-dioxo-1H,2H,3H,4H-thieno[2,3-d]pyrimidin-3-yl]-2-methylpropanoic acid] | < 100 | < 1000
13 | CCOC(=O)c1sc2c(c1C)c(=O)n(C(C)(C)C(=O)O)c(=O)n2C[C@H](OC(C)C)c1ccccc1 [I-108, 2-[6-(ethoxycarbonyl)-5-methyl-2,4-dioxo-1-[(2R)-2-phenyl-2-(propan-2-yloxy)ethyl]-1H,2H,3H,4H-thieno[2,3-d]pyrimidin-3-yl]-2-methylpropanoic acid] | < 100 | < 1000
14 | CCOC(=O)c1sc2c(c1C)c(=O)n(C(C)(C)C(=O)O)c(=O)n2C[C@H](OC)c1ccccc1 [I-110, 2-[6-(ethoxycarbonyl)-1-[(2R)-2-methoxy-2-phenylethyl]-5-methyl-2,4-dioxo-1H,2H,3H,4H-thieno[2,3-d]pyrimidin-3-yl]-2-methylpropanoic acid] | < 1000 | < 1000
15 | CCOC(=O)c1sc2c(c1C)c(=O)n(CC(N)=O)c(=O)n2C[C@H](OC(C)C)c1ccccc1 [I-112, ethyl 3-(carbamoylmethyl)-5-methyl-2,4-dioxo-1-[(2R)-2-phenyl-2-(propan-2-yloxy)ethyl]-1H,2H,3H,4H-thieno[2,3-d]pyrimidine-6-carboxylate] | < 100 | < 1000
16 | CCOC(=O)c1sc2c(c1C)c(=O)n(C(C)(C)C(N)=O)c(=O)n2C[C@H](OC(C)C)c1ccccc1 [I-115, ethyl 3-(1-carbamoyl-1-methylethyl)-5-methyl-2,4-dioxo-1-[(2R)-2-phenyl-2-(propan-2-yloxy)ethyl]-1H,2H,3H,4H-thieno[2,3-d]pyrimidine-6-carboxylate] | < 1000 | < 1000
17 | Cc1c(-c2ncco2)sc2c1c(=O)n(C(C)(C)C(=O)O)c(=O)n2C[C@H](OC(C)C)c1ccccc1 [I-119, 2-methyl-2-[5-methyl-6-(1,3-oxazol-2-yl)-2,4-doxo-1-[(2R)-2-phenyl-2-(propan-2-yloxy)ethyl]-1H,2H,3H,4H-thieno[2,3-d]pyrimidin-3-yl]propanoic acid] | < 100 | < 1000
18 | Cc1c(-c2ncco2)sc2c1c(=O)n(C(C)(C)C(N)=O)c(=O)n2C[C@H](OC(C)C)c1ccccc1 [I-121, 2-methyl-2-[5-methyl-6-(1,3-oxazol-2-yl)-2,4-dioxo-1-[(2R)-2-phenyl-2-(propan-2-yloxy)ethyl]-1H,2H,3H,4H-thieno[2,3-d]pyrimidin-3-yl]propanamide] | < 1000 | < 1000
19 | CCOC(=O)c1sc2c(c1C)c(=O)n(C(C)(C)C(=O)O)c(=O)n2C[C@H](OCC(C)C)c1ccccc1 [I-123, 2-[6-(ethoxycarbonyl)-5-methyl-1-[(2R)-2-(2-methylpropoxy)-2-phenylethyl]-2,4-dioxo-1H,2H,3H,4H-thieno[2,3-d]pyrimidin-3-yl]-2-methylpropanoic acid] | < 100 | < 1000
20 | CCOC(=O)c1sc2c(c1C)c(=O)n(C(C)(C)C(=O)O)c(=O)n2C[C@H](O[C@H](C)CC)c1ccccc1 [I-130, 2-[1-[(2R)-2-[(2R)-butan-2-yloxy]-2-phenylethyl]-6-(ethoxycarbonyl)-5-methyl-2,4-dioxo-1H,2H,3H,4H-thieno[2,3-d]pyrimidin-3-yl]-2-methylpropanoic acid] | < 100 | < 1000
21 | CCc1ccccc1CCn1c(=O)n(C(C)(C)C(=O)O)c(=O)c2c(C)c(-c3ncco3)sc21 [I-133, 2-[1-[2-(2-ethylphenyl)ethyl]-5-methyl-6-(1,3-oxazol-2-yl)-2,4-dioxo-1H,2H,3H,4H-thieno[2,3-d]pyrimidin-3-yl]-2-methylpropanoic acid] | < 100 | < 1000
22 | CCc1ccccc1CCn1c(=O)n(C(C)(C)C(N)=O)c(=O)c2c(C)c(-c3ncco3)sc21 [I-134, 2-[1-[2-(2-ethylphenyl)ethyl]-5-methyl-6-(1,3-oxazol-2-yl)-2,4-dioxo-1H,2H,3H,4H-thieno[2,3-d]pyrimidin-3-yl]-2-methylpropanamide] | < 1000 | < 1000
23 | CCOc1ccccc1CCn1c(=O)n(C(C)(C)C(=O)O)c(=O)c2c(C)c(-c3ncco3)sc21 [I-135, 2-[1-[2-(2-ethoxyphenyl)ethyl]-5-methyl-6-(1,3-oxazol-2-yl)-2,4-dioxo-1H,2H,3H,4H-thieno[2,3-d]pyrimidin-3-yl]-2-methylpropanoic acid] | < 100 | < 1000
24 | CCOc1ccccc1CCn1c(=O)n(C(C)(C)C(N)=O)c(=O)c2c(C)c(-c3ncco3)sc21 [I-139, 2-[1-[2-(2-ethoxyphenyl)ethyl]-5-methyl-6-(1,3-oxazol-2-yl)-2,4-dioxo-1H,2H,3H,4H-thieno[2,3-d]pyrimidin-3-yl]-2-methylpropanamide] | < 1000 | < 1000
25 | Cc1c(-c2ncco2)sc2c1c(=O)n(C(C)(C)C(=O)O)c(=O)n2C[C@H](OC1CCCCC1)c1ccccc1 [I-140, 2-[1-[(2R)-2-(cyclohexyloxy)-2-phenylethyl]-5-methyl-6-(1,3-oxazol-2-yl)-2,4-dioxo-1H,2H,3H,4H-thieno[2,3-d]pyrimidin-3-yl]-2-methylpropanoic acid] | < 100 | < 1000

Reference: US9453026B2, “ACC inhibitors and uses thereof” (Gilead Apollo, Inc., priority 2011, dated 2016)
